Our source for the median survival time values is patent publication US8105608B2, “Method of treatment using ligand-immunogen conjugates” (Purdue Research Foundation, priority 2000, dated 2012).

The test relates to M109 cells. Put plainly: Survival of mice with M109 cells implanted intraperitoneally close to the liver. It counts as in vivo. The settings on record: Example 16; folate-FITC 1500 nmoles/kg, IFN-α 7.5×10^4 units/day days 7, 8, 9, 11, 14; FITC-KLH immunized; 5 mice per group; PBS 17 days.

Protocol: Furthermore, in an effort to reduce the time required to obtain long-term survival data, the tumor cells were implanted intraperitoneally close to the liver. […] Aminofluorescein was injected along with the various cytokine combinations as a control because this compound is not linked to folate and will not retarget anti-fluorescein antibodies to tumor cells.
Each mouse was injected with 0.2 ml of a 1:10 dilution of the antibody stock solution on days 1, 4, 9, and 14 after tumor implantation to achieve NK cell depletion.
Additionally, the animals were immunized with FITC-labeled keyhole limpit hemocyanin (KLH) rather than FITC-labeled BSA.
Aminofluorescein was injected along with the IL-2, IFN-α cytokine combination as a control because this compound is not linked to folate and will not retarget anti-fluorescein antibodies to tumor cells.
Additionally, the animals were immunized with DNP-labeled keyhole limpit hemocyanin (KLH).
Additionally, the animals (5 mice per group) were immunized with FITC-labeled keyhole limpit hemocyanin (KLH) rather than FITC-labeled BSA.

The substance IFN-α came in with a median survival time of 17 days.
